These are literature values, as cited in patent US20150297556A1 (priority 2014, published 2015).

As for “(1S,5S)-2,6,6-Trimethylbicyclo[3.1.1]hept-2-ene ((−)-α-Pinene)”, the human pulmonary uptake was 60%.
